Reference: patent publication US20260125382A1, “COMPOUNDS FOR INHIBITING OR DEGRADING CDK2 AND/OR CDK9 AND MEDICINAL USE THEREOF” (KOREA RESEARCH INSTITUTE OF CHEMICAL TECHNOLOGY, priority 2022, published 2026)

How the values were obtained:
[1] = biological target: T1, CDK2 (Homo sapiens, UniProt P24941); test: CDK protein degradation activity (Western blotting), CDK2; type: cell-based; settings: MDA-MB-231 cells, 16 hours, Western blot
T1 construct: endogenous in cells; host or cells: MDA-MB-231
How it was run: (§1)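 MDA-MB-231 cells treated 16 h with compound at 100 nM, 1 μM or 10 μM, with DMSO as control. Lysates run on SDS-PAGE and immunoblotted for CDK2, CDK9 and tubulin; band levels quantified by densitometry.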

[2] = biological target: T2, CDK9 (Homo sapiens, UniProt P50750); test: CDK protein degradation activity (Western blotting), CDK9; type: cell-based; settings: MDA-MB-231 cells, 16 hours, Western blot
T2 construct: endogenous in cells; host or cells: MDA-MB-231
T2 sequence (P50750 whole entry): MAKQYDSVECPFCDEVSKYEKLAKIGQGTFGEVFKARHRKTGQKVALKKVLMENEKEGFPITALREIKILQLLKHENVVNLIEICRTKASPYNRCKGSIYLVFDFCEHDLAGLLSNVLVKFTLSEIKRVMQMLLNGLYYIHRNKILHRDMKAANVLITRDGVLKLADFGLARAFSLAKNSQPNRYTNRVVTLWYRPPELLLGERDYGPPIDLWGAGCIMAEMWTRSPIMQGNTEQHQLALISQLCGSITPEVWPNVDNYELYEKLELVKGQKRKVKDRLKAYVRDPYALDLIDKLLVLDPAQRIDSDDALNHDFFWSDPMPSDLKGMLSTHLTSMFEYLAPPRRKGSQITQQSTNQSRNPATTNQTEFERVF
How it was run: as §1

Row | SMILES | Enzyme degradation CDK2 (% remaining) @ 0.1 μM [1] | Enzyme degradation CDK2 (% remaining) @ 1 μM [1] | Enzyme degradation CDK2 (% remaining) @ 10 μM [1] | Enzyme degradation CDK9 (% remaining) @ 0.1 μM [2] | Enzyme degradation CDK9 (% remaining) @ 1 μM [2] | Enzyme degradation CDK9 (% remaining) @ 10 μM [2]
1 | O=C1CC[C@@H](c2ccc(OCC(=O)N3CCC(CCN4CCN(c5ccc(Nc6ncnc7c6ncn7C6CC(NC(=O)Cc7ccccc7)C6)cc5)CC4)CC3)cc2)C(=O)N1 (stereo partly drawn) [Compound 433, N-((1s,3s)-3-(6-((4-(4-(2-(1-(2-(4-(2,6-dioxopiperidin-3-yl)phenoxy)acetyl)piperidin-4-yl)ethyl)piperazin-1-yl)phenyl)amino)-9H-purin-9-yl)cyclobutyl)-2-phenylacetamide] | 80% | 90% | 90% | 20% | 10% | 10%
2 | O=C1CCC(c2ccc(OCC(=O)N3CCC(CCN4CCN(c5ccc(Nc6ncnc7c6ncn7[C@H]6C[C@@H](NC(=O)c7c(Cl)cccc7Cl)C6)cc5)CC4)CC3)cc2)C(=O)N1 (stereo partly drawn) [Compound 434, 2,6-dichloro-N-((1s,3s)-3-(6-((4-(4-(2-(1-(2-(4-(2,6-dioxopiperidin-3-yl)phenoxy)acetyl)piperidin-4-yl)ethyl)piperazin-1-yl)phenyl)amino)-9H-purin-9-yl)cyclobutyl)benzamide] | 50% | 70% | 80% | 10/10/10% | 10/10/10% | 10/10/10%
3 | Cc1cccc(C(=O)NC2CC(n3cnc4c(Nc5ccc(N6CCN(C7CC8(CCN(C(=O)COc9ccc([C@@H]%10CCC(=O)NC%10=O)cc9)CC8)C7)CC6)cc5)ncnc43)C2)n1 (stereo partly drawn) [Compound 435, N-((1s,3s)-3-(6-((4-(4-(7-(2-(4-(2,6-dioxopiperidin-3-yl)phenoxy)acetyl)-7-azaspiro[3.5]nonan-2-yl)piperazin-1-yl)phenyl)amino)-9H-purin-9-yl)cyclobutyl)-6-methylpicolinamide] | 40/40/40% | 40/40/40% | 40/40/40% | 10/10/10% | 10/10/10% | 10/10/10%
4 | O=C1CC[C@@H](c2ccc(OCC(=O)N3CCC(CN4CCN(c5ccc(Nc6ncnc7c6ncn7C6CC(NC(=O)c7cccc(C(F)(F)F)n7)C6)cc5)CC4)CC3)cc2)C(=O)N1 (stereo partly drawn) [Compound 436, N-((1s,3s)-3-(6-((4-(4-((1-(2-(4-(2,6-dioxopiperidin-3-yl)phenoxy)acetyl)piperidin-4-yl)methyl)piperazin-1-yl)phenyl)amino)-9H-purin-9-yl)cyclobutyl)-6-(trifluoromethyl)picolinamide] | 30/30/30% | 30/30/30% | 30/30/30% | 10/10/10% | 10/10/10% | 10/10/10%
5 | O=C1CC[C@@H](c2ccc(OCC(=O)N3CCC(CN4CCN(c5ccc(Nc6ncnc7c6ncn7[C@H]6C[C@@H](NC(=O)c7c(Cl)cccc7Cl)C6)cc5)CC4)CC3)cc2)C(=O)N1 [Compound 437, 2,6-dichloro-N-((1s,3s)-3-(6-((4-(4-((1-(2-(4-(2,6-dioxopiperidin-3-yl)phenoxy)acetyl)piperidin-4-yl)methyl)piperazin-1-yl)phenyl)amino)-9H-purin-9-yl)cyclobutyl)benzamide] | 30% | 40% | 40% | 10/10/10% | 10/10/10% | 10/10/10%
6 | O=C1CC[C@@H](c2ccc(OCC(=O)N3CCC(CCN4CCN(c5ccc(Nc6ncnc7c6ncn7[C@H]6C[C@@H](NC(=O)c7cccc(C(F)(F)F)n7)C6)cc5)CC4)CC3)cc2)C(=O)N1 [Compound 438, N-((1s,3s)-3-(6-((4-(4-(2-(1-(2-(4-(2,6-dioxopiperidin-3-yl)phenoxy)acetyl)piperidin-4-yl)ethyl)piperazin-1-yl)phenyl)amino)-9H-purin-9-yl)cyclobutyl)-6-(trifluoromethyl)picolinamide] | 40% | 50% | 50% | 10/10/10% | 10/10/10% | 10/10/10%
7 | O=C1CC[C@@H](c2ccc(OCC(=O)N3CCC4(CC3)CC(N3CCN(c5ccc(Nc6ncnc7c6ncn7[C@H]6C[C@@H](NC(=O)c7cccc(C(F)(F)F)n7)C6)cc5)CC3)C4)cc2)C(=O)N1 [Compound 439, N-((1s,3s)-3-(6-((4-(4-(7-(2-(4-(2,6-dioxopiperidin-3-yl)phenoxy)acetyl)-7-azaspiro[3.5]nonan-2-yl)piperazin-1-yl)phenyl)amino)-9H-purin-9-yl)cyclobutyl)-6-(trifluoromethyl)picolinamide] | 50/50/50% | 50/50/50% | 50/50/50% | 10/10/10% | 10/10/10% | 10/10/10%
8 | O=C1CC[C@@H](c2ccc(OCC(=O)N3CCC(CN4CCN(c5ccc(Nc6ncnc7c6ncn7[C@H]6C[C@@H](NC(=O)c7cccc(Cl)n7)C6)cc5)CC4)CC3)cc2)C(=O)N1 [Compound 440, 6-chloro-N-((1s,3s)-3-(6-((4-(4-((1-(2-(4-(2,6-dioxopiperidin-3-yl)phenoxy)acetyl)piperidin-4-yl)methyl)piperazin-1-yl)phenyl)amino)-9H-purin-9-yl)cyclobutyl)picolinamide] | 20/20/20% | 20/20/20% | 20/20/20% | 10/10/10% | 10/10/10% | 10/10/10%
9 | N#Cc1cccc(C(=O)N[C@H]2C[C@@H](n3cnc4c(Nc5ccc(N6CCN(CC7CCN(c8ccc9c(c8)CN(C8CCC(=O)NC8=O)C9=O)CC7)CC6)cc5)ncnc43)C2)n1 (stereo partly drawn) [Compound 441, 6-cyano-N-((1s,3s)-3-(6-((4-(4-((1-(2-(2,6-dioxopiperidin-3-yl)-1-oxoisoindolin-5-yl)piperidin-4-yl)methyl)piperazin-1-yl)phenyl)amino)-9H-purin-9-yl)cyclobutyl)picolinamide] | 30% | 30% | 40% | 10/10/10% | 10/10/10% | 10/10/10%

Next, values leading:

Row | Enzyme degradation CDK2 (% remaining) @ 0.1 μM [1] | Enzyme degradation CDK2 (% remaining) @ 1 μM [1] | Enzyme degradation CDK2 (% remaining) @ 10 μM [1] | Enzyme degradation CDK9 (% remaining) @ 0.1 μM [2] | Enzyme degradation CDK9 (% remaining) @ 1 μM [2] | Enzyme degradation CDK9 (% remaining) @ 10 μM [2] | SMILES
10 | 40/40/40% | 40/40/40% | 40/40/40% | 0/0/0% | 0/0/0% | 0/0/0% | O=C1CC[C@@H](c2ccc(OCC(=O)N3CCC4(CC3)CC(N3CCN(c5ccc(Nc6ncnc7c6ncn7[C@H]6C[C@@H](NC(=O)c7c(Cl)cccc7Cl)C6)cc5)CC3)C4)cc2)C(=O)N1 [Compound 442, 2,6-dichloro-N-((1s,3s)-3-(6-((4-(4-(7-(2-(4-(2,6-dioxopiperidin-3-yl)phenoxy)acetyl)-7-azaspiro[3.5]nonan-2-yl)piperazin-1-yl)phenyl)amino)-9H-purin-9-yl)cyclobutyl)benzamide]
11 | 20/20/20% | 20/20/20% | 20/20/20% | 0/0/0% | 0/0/0% | 0/0/0% | Cc1cccc(C(=O)NC2CC(n3cnc4c(Nc5ccc(N6CCN(CC7CCN(C(=O)COc8ccc([C@@H]9CCC(=O)NC9=O)cc8)CC7)CC6)cc5)ncnc43)C2)n1 (stereo partly drawn) [Compound 443, N-((1s,3s)-3-(6-((4-(4-((1-(2-(4-(2,6-dioxopiperidin-3-yl)phenoxy)acetyl)piperidin-4-yl)methyl)piperazin-1-yl)phenyl)amino)-9H-purin-9-yl)cyclobutyl)-6-methylpicolinamide]
12 | 30/30/30% | 30/30/30% | 30/30/30% | 0/0/0% | 0/0/0% | 0/0/0% | Cc1cccc(C(=O)N[C@H]2C[C@@H](n3cnc4c(Nc5ccc(N6CCN(CCC7CCN(C(=O)COc8ccc([C@@H]9CCC(=O)NC9=O)cc8)CC7)CC6)cc5)ncnc43)C2)n1 [Compound 444, N-((1s,3s)-3-(6-((4-(4-(2-(1-(2-(4-(2,6-dioxopiperidin-3-yl)phenoxy)acetyl)piperidin-4-yl)ethyl)piperazin-1-yl)phenyl)amino)-9H-purin-9-yl)cyclobutyl)-6-methylpicolinamide]
13 | 70/70/70% | 70/70/70% | 70/70/70% | 20/20/20% | 20/20/20% | 20/20/20% | Cc1cccc(C(=O)N[C@H]2C[C@@H](n3cnc4c(Nc5ccc(N6CCN(CC7CCN(C(=O)C8CN(c9ccc%10c(c9)C(=O)N([C@H]9CCC(=O)NC9=O)C%10=O)C8)CC7)CC6)cc5C)ncnc43)C2)n1 [Compound 448, N-((1s,3s)-3-(6-((4-(4-((1-(1-(2-(2,6-dioxopiperidin-3-yl)-1,3-dioxoisoindolin-5-yl)azetidin-3-carbonyl)piperidin-4-yl)methyl)piperazin-1-yl)-2-methylphenyl)amino)-9H-purin-9-yl)cyclobutyl)-6-methylpicolinamide]
